Measurements as given in ChEMBL document CHEMBL1201862, “PubChem BioAssay data set” (2004).
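Assay format: 96-well plates, 48-hour exposure. GI50 is the concentration that inhibits growth by half.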 The source made the active and inactive calls. No stated cut-off is given here; in the data, active = GI50 up to about 1.1 µM and inactive = higher.

How the values were obtained:
Test in all cases: NCI-60 cell line screen, 48 h
[1] = system: HCC 2998
[2] = system: RXF 393
[3] = system: 786-0
[4] = system: HL-60
[5] = system: M14
[6] = system: MOLT-4
[7] = system: NCI-H522
[8] = system: SK-MEL-2
[9] = system: EKVX
[10] = system: HT-29
[11] = system: T47D
[12] = system: NCI-H460
[13] = system: UO-31
[14] = system: IGROV-1
[15] = system: RPMI-8226
[16] = system: HOP-92
[17] = system: DU-145
[18] = system: K562
[19] = system: NCI/ADR-RES

| SMILES | GI50 [1] | GI50 [2] | GI50 [3] | GI50 [4] | GI50 [5] | GI50 [6] | GI50 [7] | GI50 [8] | GI50 [9] | GI50 [10] | GI50 [11] | GI50 [12] | GI50 [13] | GI50 [14] | GI50 [15] | GI50 [16] | GI50 [17] | GI50 [18] | GI50 [19] |
| --- | --- | --- | --- | --- | --- | --- | --- | --- | --- | --- | --- | --- | --- | --- | --- | --- | --- | --- | --- |
| Cc1cc(C)c2c(c1)C/C(=C\c1cccc(C)c1C(=O)O)C2=O | 66.5 µM (inactive) | 72.9 µM (inactive) | 57.3 µM (inactive) | > 100 µM (inactive) | 88.9 µM (inactive) | 50.5 µM (inactive) | 30.8 µM (inactive) | 89.9 µM (inactive) | 60.7 µM (inactive) | 72.6 µM (inactive) | > 100 µM (inactive) | 41.8 µM (inactive) | 39.6 µM (inactive) | 50.7 µM (inactive) | 68.5 µM (inactive) | > 100 µM (inactive) | 52.2 µM (inactive) | 31.1 µM (inactive) |  |
| COc1ccccc1/C=C/C1=NN(c2cccc(S(=O)(=O)O)c2)C2(C1)C(Cl)C(=O)N2c1nc2ccccc2s1 (configuration not stated) | > 91 µM (inactive) | 31.3 µM (inactive) | 37.8 µM (inactive) | 22.1 µM (inactive) | > 75.3 µM (inactive) | 34 µM (inactive) | 9.04 µM (inactive) | > 100 µM (inactive) | 43.4 µM (inactive) | 82.4 µM (inactive) | 12.1 µM (inactive) | 37.8 µM (inactive) | 16.9 µM (inactive) | 28.5 µM (inactive) | 19 µM (inactive) |  | 67 µM (inactive) | 31.4 µM (inactive) | > 100 µM (inactive) |
| Cn1c2ccccc2c2nc3ccccc3c(Cl)c21 |  | 37.9 µM (inactive) | > 100 µM (inactive) | > 100 µM (inactive) | > 100 µM (inactive) | > 100 µM (inactive) | > 100 µM (inactive) | > 100 µM (inactive) |  | > 100 µM (inactive) |  | > 100 µM (inactive) |  | > 100 µM (inactive) | > 100 µM (inactive) | > 10 µM (inactive) | > 100 µM (inactive) | > 100 µM (inactive) | > 100 µM (inactive) |
| COC(=O)C1(C)C=C(Nc2ccccc2)C(=O)N1c1ccccc1 (configuration not stated) | > 100 µM (inactive) | > 100 µM (inactive) | > 100 µM (inactive) | > 100 µM (inactive) | > 100 µM (inactive) | > 100 µM (inactive) | > 100 µM (inactive) | > 100 µM (inactive) | > 100 µM (inactive) | > 100 µM (inactive) |  | > 100 µM (inactive) | 58.3 µM (inactive) | > 100 µM (inactive) | > 100 µM (inactive) | 54.1 µM (inactive) |  | > 100 µM (inactive) |  |
| Cc1ccc(C(O)c2cnc(C)n2Cc2ccccc2)cc1 (configuration not stated) | > 100 µM (inactive) | > 100 µM (inactive) | > 100 µM (inactive) | 6.43 µM (inactive) | > 100 µM (inactive) |  | > 100 µM (inactive) | > 100 µM (inactive) | > 100 µM (inactive) | > 100 µM (inactive) |  | > 100 µM (inactive) | > 100 µM (inactive) | > 100 µM (inactive) | 46 µM (inactive) | > 100 µM (inactive) | > 100 µM (inactive) | > 100 µM (inactive) | 85.3 µM (inactive) |
| COc1nc2c(c(=O)n1C)N=C(c1ccccc1)[C@H](C(CC(=O)c1ccccc1)c1ccccc1)C(c1ccccc1)N2 (some centres not stated) | 83.8 µM (inactive) | 28.5 µM (inactive) | 76.4 µM (inactive) | 38.4 µM (inactive) | > 100 µM (inactive) | 19.5 µM (inactive) | 25.9 µM (inactive) | > 100 µM (inactive) | 22.2 µM (inactive) | 44.7 µM (inactive) |  |  | 38.2 µM (inactive) | 49.3 µM (inactive) | 36.7 µM (inactive) | > 100 µM (inactive) | > 100 µM (inactive) | 55.5 µM (inactive) | 39.6 µM (inactive) |
| O=C(OCC(Cl)(Cl)Cl)N1CC[C@H](C2CCCCC2)C1 | 18.5 µM (inactive) | 19.5 µM (inactive) | 16.7 µM (inactive) |  | 20.7 µM (inactive) | 28.1 µM (inactive) | 17.1 µM (inactive) | 15.8 µM (inactive) | 16.9 µM (inactive) |  | 15.3 µM (inactive) | 18.6 µM (inactive) | 17.6 µM (inactive) | 16.4 µM (inactive) |  |  | 15.8 µM (inactive) | 21.1 µM (inactive) | 15 µM (inactive) |
| O=C(NC1CCCCC1)NS(=O)(=O)c1ccc2c(c1)CCC2 [GLYHEXAMIDE] | > 100 µM (inactive) | > 100 µM (inactive) | > 100 µM (inactive) | > 100 µM (inactive) | > 100 µM (inactive) | > 100 µM (inactive) | > 100 µM (inactive) | > 100 µM (inactive) | > 100 µM (inactive) |  |  |  | > 100 µM (inactive) | > 100 µM (inactive) | > 100 µM (inactive) | > 100 µM (inactive) |  | > 100 µM (inactive) |  |
| C=C1C(=O)O[C@H]2[C@@H](O)[C@H](C)CCC[C@]3(C)O[C@H]3CC[C@@]3(C)O[C@@H]3C[C@@H]12 | 4.93 µM (inactive) | 1.67 µM (inactive) | 5.15 µM (inactive) | 0.897 µM (active) | 6.11 µM (inactive) | 1.55 µM (inactive) | 1.12 µM (inactive) | 9.2 µM (inactive) | 4.06 µM (inactive) | 5.66 µM (inactive) | 7.66 µM (inactive) |  | 6.04 µM (inactive) | 5.24 µM (inactive) | 2.15 µM (inactive) |  | 6.52 µM (inactive) | 1.14 µM (inactive) | 7.73 µM (inactive) |
| CCOP(=O)(OCC)C1CC(O)CN1OC(=O)C(C)(C)C (configuration not stated) |  |  | > 100 µM (inactive) |  | > 100 µM (inactive) | > 100 µM (inactive) |  | > 100 µM (inactive) | > 100 µM (inactive) | > 100 µM (inactive) |  |  | > 100 µM (inactive) | > 100 µM (inactive) | > 100 µM (inactive) |  | > 100 µM (inactive) | > 100 µM (inactive) | > 100 µM (inactive) |
| COc1cc(CNC2=NCCC2)cc(OC)c1OC | > 100 µM (inactive) | > 100 µM (inactive) | > 100 µM (inactive) | > 100 µM (inactive) | > 100 µM (inactive) | > 100 µM (inactive) | > 100 µM (inactive) |  | 56.1 µM (inactive) | > 100 µM (inactive) |  | > 100 µM (inactive) | > 100 µM (inactive) | > 100 µM (inactive) |  | > 100 µM (inactive) | > 100 µM (inactive) | 65.5 µM (inactive) | > 100 µM (inactive) |
| Cc1ccc(-c2c(C#N)c(-c3ccccc3)n(NS(=O)(=O)c3ccccc3)c(=O)c2C#N)cc1 | 47.3 µM (inactive) | 63.4 µM (inactive) | > 100 µM (inactive) |  | 93.3 µM (inactive) | 20.7 µM (inactive) | 88.1 µM (inactive) | > 100 µM (inactive) | > 100 µM (inactive) | > 100 µM (inactive) |  | 61.7 µM (inactive) |  | 40.6 µM (inactive) | 19.6 µM (inactive) | 61.5 µM (inactive) |  | > 100 µM (inactive) | 63.5 µM (inactive) |
| CSc1[nH]nc(N)c1C(=O)Nc1ccc(C)cc1 | 76.9 µM (inactive) | 97.9 µM (inactive) | 49.4 µM (inactive) | 39.3 µM (inactive) | 83.9 µM (inactive) | 26.2 µM (inactive) | 26.7 µM (inactive) | 74.1 µM (inactive) | 32.2 µM (inactive) | > 100 µM (inactive) | 18.4 µM (inactive) | 60.1 µM (inactive) | 36.9 µM (inactive) |  | 51.3 µM (inactive) | 19.5 µM (inactive) | 22.3 µM (inactive) | 69.5 µM (inactive) |  |
| CC(C)(C)NC1C2CCC(C)(C1O)C2(C)C (configuration not stated) | > 100 µM (inactive) | > 100 µM (inactive) | > 100 µM (inactive) |  | > 100 µM (inactive) | > 100 µM (inactive) |  | > 100 µM (inactive) | > 100 µM (inactive) | > 100 µM (inactive) | > 100 µM (inactive) | > 100 µM (inactive) | > 100 µM (inactive) | > 100 µM (inactive) | > 100 µM (inactive) |  | > 100 µM (inactive) | > 100 µM (inactive) | > 100 µM (inactive) |
| Nc1nc(-c2ccccc2)cc(-c2ccc(OCc3ccccc3)cc2O)n1 | 34.4 µM (inactive) | 27.5 µM (inactive) | 40.9 µM (inactive) |  | 30.8 µM (inactive) | 48.4 µM (inactive) | 20.5 µM (inactive) | 32.4 µM (inactive) | 50.4 µM (inactive) | 37.8 µM (inactive) |  | 40.4 µM (inactive) | 38.1 µM (inactive) | 32.7 µM (inactive) | 22.7 µM (inactive) | 38.7 µM (inactive) | 73.6 µM (inactive) | 43 µM (inactive) | 29.4 µM (inactive) |
| CS(=O)(=O)OCOS(C)(=O)=O | > 100 µM (inactive) |  | > 100 µM (inactive) | 26.7 µM (inactive) | > 100 µM (inactive) | 22.9 µM (inactive) |  | > 100 µM (inactive) | > 100 µM (inactive) | 48.3 µM (inactive) |  | 39.8 µM (inactive) | > 100 µM (inactive) | > 100 µM (inactive) | 31.9 µM (inactive) | > 100 µM (inactive) | 59.6 µM (inactive) | > 100 µM (inactive) | > 100 µM (inactive) |
| ClCCCC1COc2ccccc2O1 (configuration not stated) | > 100 µM (inactive) | > 100 µM (inactive) | > 100 µM (inactive) | > 100 µM (inactive) | > 100 µM (inactive) | > 100 µM (inactive) | > 100 µM (inactive) |  | > 100 µM (inactive) | > 100 µM (inactive) |  | > 100 µM (inactive) | > 100 µM (inactive) | 46.3 µM (inactive) |  | 43.6 µM (inactive) | > 100 µM (inactive) | > 100 µM (inactive) | > 100 µM (inactive) |
